Test results as given in patent US12286632B2, “Rationally-designed synthetic peptide shuttle agents for delivering polypeptide cargos from an extracellular space to the cytosol and/or nucleus of a target eukaryotic cell, uses thereof, methods and kits relating to same” (Feldan Bio Inc., priority 2016, dated 2025).
Ends that are not written are not given here.

Assays:
[1] = tested on: HeLa cells; assay: FITC-labeled anti-tubulin antibody transduction assay (flow cytometry, cell viability, microscopy); details: FITC-labeled anti-tubulin antibody 0.5 μM, HeLa, 1 hour; shuttle 3.5 μM
Protocol: The delivery and microscopy protocols are described in Example 3.
HeLa cells were cultured and tested in the protein transduction assay described in Example 3.1. […] The cells were subjected to flow cytometry analysis as described in Example 3.3.

[2] = tested on: HeLa cells; assay: Cytotoxic activity of NK92 against HeLa cells with GSK3 inhibitor; format: cell-based, Human; details: data not shown
[3] = tested on: NKG2A genomic DNA sequence; assay: T7E1 DNA cleavage assay / % INDELs after CRISPR/Cpf1-NLS delivery (NK and NK-92 cells); format: cell-based, Human; details: gene target NKG2A, CRISPR/Cpf1 1.33 μM, crRNA 2 μM, peptide 6 μM, 1 min in PBS, n=2
Excerpt: The T7 endonuclease I (T7E1) can be used to detect on-target CRISPR/Cas genome editing events in cultured cells. As an overview, genomic DNA from target cells is amplified by PCR. The PCR products are then denatured and reannealed to allow heteroduplex formation between wild-type DNA and CRISPR/Cas-mutated DNA. T7E1, which recognizes and cleaves mismatched DNA, is used to digest the heteroduplexes. The resulting cleaved and full-length PCR products are visualized by gel electrophoresis.
The T7E1 assay was performed with the Edit-R™ Synthetic crRNA Positive Controls (Dharmacon #U-007000-05) and the T7 Endonuclease I (NEB, Cat #M0302S). After the delivery of the CRISPR/Cas complex, cells were lysed in 100 μL of Phusion™ High-Fidelity DNA polymerase (NEB #M0530S) laboratory with additives. The cells were incubated for 15-30 minutes at 56° C., followed by deactivation for 5 minutes at 96° C. The plate was briefly centrifuged to collect the liquid at bottom of the wells. 50-μL PCR samples were set up for each sample to be analyzed. The PCR samples were heated to 95° C. for 10 minutes and then slowly (>15 minutes) cooled to room temperature. PCR product (-5 μL) was then separated on an agarose gel (2%) to confirm amplification. 15 μL of each reaction was incubated with T7E1 nuclease for 25 minutes at 37° C. […]

[4] = in vitro; details: human, HeLa cells
[5] = in vitro; details: human, HeLa cells, Cell viability (%) (±St Dev.; n = 3)
[6] = in vitro; details: human, THP-1 cells
Protocol: One day before the transduction assay was performed, cells in exponential growth phase were harvested and plated in a 96-well plate (20,000 cells per well). The cells were incubated overnight in appropriate growth media containing FBS (see Example 1). The next day, in separate sterile 1.5 mL tubes, cargo protein at the indicated concentration was pre-mixed (pre-incubated) for 1 or 10 min (depending on the protocol) at 37° C. with the peptide(s) to be tested shuttle agents (0.5 to 5 μM) in 50 μL of fresh medium without serum (unless otherwise specified). The media in wells was removed and the cells were washed three times with freshly prepared phosphate buffered saline (PBS) previously warmed at 37° C. The cells were incubated with the cargo protein/shuttle agent mixture at 37° C. for the indicated time (e.g., 1, 5 or 60 min). After the incubation, the cells were quickly washed three times with freshly prepared PBS and/or heparin (0.5 mg/mL) previously warmed at 37° C. The washes with heparin were required for human THP-1 blood cells to avoid undesired cell membrane-bound protein background in subsequent analyses (microscopy and flow cytometry). The cells were finally incubated in 50 μL of fresh medium with serum at 37° C. before analysis.
One day before the transduction assay was performed, suspension cells in exponential growth phase were harvested and plated in a 96-well plate (20,000 cells per well). The cells were incubated overnight in appropriate growth media containing serum (see Example 1). The next day, in separate sterile 1.5-mL tubes, peptides were diluted in sterile distilled water at room temperature (if the cargo is or comprised a nucleic acid, nuclease-free water was used). Cargo protein(s) were then added to the peptides and, if necessary, sterile PBS or cell culture medium (serum-free) was added to obtain the desired concentrations of shuttle agent and cargo in a sufficient final volume to resuspend the cells (e.g., 10 to 100 μL per well in a 96-well plate). The shuttle agent/peptide was then immediately used for experiments. At least three controls were included for each experiment, including: (1) peptide alone (e.g., at highest concentration tested); (2) cargo alone; and (3) without any cargo or shuttle agent. The cells were centrifuged for 2 minutes at 400g, the medium was then removed and the cells were resuspended in PBS previously warmed at 37° C. The cells were centrifuged again 2 minutes at 400g, the PBS removed, and the cells were resuspended with the cargo protein/peptide mixture at 37° C. for the desired length of time. After that, 200 μL of complete medium was added directly on the cells. Cells were centrifuged for 2 minutes at 400g and the medium was removed. The pellet was resuspended and washed in 200 μL of PBS previously warmed at 37° C. After another centrifugation, the PBS was removed and the cells were resuspended in 50 μL of trypsin-EDTA solution for 2 min. 200 of complete medium was directly added and cells were centrifuged for 2 minutes at 400g. The medium was removed and the cells were resuspended in 200 μL of complete medium.
The cells incubated in 50 μL of fresh medium were directly observed by microscopy (Bright-field and fluorescence) at different power fields (4× to 40×). The cells were observed using a CoolSNAP-PRO™ camera (Series A02D874021) and images were acquired using the Image-Proplus™ software.
The fluorescence of GFP was quantified using flow cytometry (Accuri C6, Becton, Dickinson and Company (BD)).

[7] = tested on: T cells; format: cell-based, human
Protocol: Unless otherwise specified, T cells used herein were obtained from healthy human blood collected in heparinized tubes. T cells were isolated using a Ficoll™ technique (Ficoll-Paque™ GE or Lymphoprep™ Stem Cell Technologies). Briefly, blood was mixed with the Ficoll™ solution in conical tubes (50 mL) and centrifuged at 2280 rpm for 20 minutes. Mononuclear cells were harvested and transferred in another conical tube (50 mL) before washing with PBS and centrifugation at 1100 rpm for 10 minutes. Cells were resuspended in 5 mL of PBS containing 20% FBS. Cells were counted and then incubated in a culture medium composed by RPMI advanced (cat: 12633012 ThermoFisher), 10% FBS, 1% Penstrep (15140122 ThermoFisher), 1% L-glutamine (25030081 ThermoFisher) IL-2 30U/ml). Next, T cells were enriched with a Human T cell Enrichment Kit (StemCell #cat: 19051) by negative selection following the manufacturer instructions. The enriched T cells were validated using a specific anti-CD3 antibody (Biolegend #cat: 300438). At this step, collected cells were typically around 99% T cells. T cells were activated by adding IL-2 at 30 U/mL and the anti-CD28 antibody (ThermoFisher #cat: 16-0289-85) in complete medium for 5 days prior to experimentation. The activation of T cell expansion was then double-checked with both anti-CD25 and anti-CD137 antibodies. […]

[8] = Plasmid DNA (pEGFP-C1) transfection by peptides (% cells with GFP signal, cell viability); details: human, HeLa cells
[9] = in vitro
[10] = tested on: HeLa cells; format: cell-based, Human; details: GFP 5 μM; 5 μM of each peptide; 1 hour; data not shown
[11] = tested on: HeLa cells; format: cell-based; details: peptide 5 μM; fold-increase relative to untreated calcein-loaded cells
Excerpt: Calcein is a membrane-impermeable fluorescent molecule that is readily internalized by cells when administered to the extracellular medium. Its fluorescence is […] and calcein self-quenches at higher concentrations. Once internalized, calcein becomes sequestered at high concentrations in cell endosomes and can be visualized by fluorescence microscopy as a punctate pattern. Following endosomal leakage, calcein is released to the cell cytoplasm and this release can be visualized by fluorescence microscopy as a diffuse pattern.
The cells were allowed to attach by incubating overnight in appropriate growth media, as described in Example 1. The next day, the media in wells was removed and replaced with 50 μL of fresh media without serum containing 62.5 μg/mL (100 μM) of calcein, except for HEK293A (250 μg/mL, 400 μM). […]
Untreated calcein-loaded cells were used as a control to distinguish cells having a baseline of fluorescence due to endosomally-trapped calcein from cells having increased fluorescence due to release of calcein from endosomes. Fluorescence signal means (“mean counts”) were analyzed for endosomal escape quantification. In some cases, the “Mean Factor” was calculated, which corresponds to the fold-increase of the mean counts relative to control (untreated calcein-loaded cells). […] The cellular mortality was monitored with the percentage of cells in the total events scanned. […]

[12] = tested on: HeLa cells; assay: GFP-NLS protein transduction assay (flow cytometry: Pos cells %, viability %, relative fluorescence intensity; microscopy); details: Table 10.3b; Protocol B; HeLa; shuttle 50 μM; GFP-NLS 5 μM; 10 seconds

With CC[C@H](C)[C@H](NC(=O)[C@H](CCCCN)NC(=O)[C@H](CCCCN)NC(=O)[C@H](Cc1ccccc1)NC(=O)[C@H](CC(C)C)NC(=O)[C@H](CCCCN)NC(=O)[C@H](Cc1c[nH]c2ccccc12)NC(=O)[C@@H](N)CCCCN)C(=O)NCC(=O)N[C@@H](C)C(=O)N[C@H](C(=O)N[C@@H](CC(C)C)C(=O)N[C@@H](CCCCN)C(=O)N[C@H](C(=O)N[C@@H](CC(C)C)C(=O)N[C@H](C(=O)N[C@H](C(=O)NCC(=O)N[C@@H](CCCNC(=N)N)C(=O)N[C@@H](CCC(N)=O)C(=O)N[C@H](C(=O)N[C@@H](CCCCN)C(=O)N[C@H](C(=O)N[C@@H](Cc1c[nH]c2ccccc12)C(=O)N[C@@H](Cc1ccccc1)C(=O)N[C@@H](CCC(N)=O)C(=O)N[C@@H](CC(N)=O)C(=O)N[C@@H](CCCNC(=N)N)C(=O)N[C@@H](CCCNC(=N)N)C(=O)N[C@@H](CCSC)C(=O)N[C@@H](CCCCN)C(=O)N[C@@H](Cc1c[nH]c2ccccc12)C(=O)N[C@@H](CCCCN)C(=O)N[C@@H](CCCCN)C(=O)N[C@@H](CS)C(=O)O)[C@@H](C)CC)[C@@H](C)CC)[C@@H](C)O)[C@@H](C)O)C(C)C)C(C)C [CM18-Penetratin-Cys] the “FIG. 19B Cell viability (%) (± St. Dev.; n = 3)” value [1] was 73 ± 9.5%.

In the case of Cn1cc(C2=C(c3ccc(Cl)cc3Cl)C(=O)NC2=O)c2ccccc21 [SB216763], the “effect on cytotoxic activity of NK92” value [2] is reported as “enhances the cytotoxic activity of NK92 against HeLa cells”.

For “FSD100 (HHHHHHFLKIWSRLIKIWTQGRRKGAQAAFRHHHHHH)”, the “% INDELs” value [3] was 16%.

For “FSD101 (HHHHHHRFAAQAGKRRGQTWIKILRSWIKLF)”, the “% INDELs” value [3] was 17%.

HHHHHHFLKIWSRLIKIWTQGRRKGAQAAFR [FSD21] gave a viability [4] of 96.2 ± 1.69%, a viability [5] of 75.6 ± 5.99% and a viability at 15 s, 5 µM [6] of 62.5 ± 5.16%. For the same molecule, the viability at 0.5 min, 2 µM [6] was 75.6 ± 6.38% and the “viability of transduced T cells (FSC/SSC, in words)” value [7] was “viability of the transduced T cells was not substantially affected”.

With “HHHHHHVWKLFWTLLAAIYGRGKARQKRAKRQARG [Peptide F5D25]” the viability [8] was 98.2 ± 1.19%.

In the case of HHHHHHYARAAARQARA [Peptide 6His-PTD4], the viability [8] is reported as 97.2 ± 1.34%.

In the case of “LLKLWSRLLKLWTQGGSGGGSGRRLKAKRAKA [FSD18]”, the viability [5] is reported as 82.4%, the viability at 0.5 min, 2 µM [6] is reported as 97.9 ± 1.73% and the viability at 1 min, 1 µM [6] is reported as 95.3 ± 3.11%. It also gave a viability at 1 min, 2 µM [6] of 98.6 ± 0.37%, a viability at 0.025 h, 1 µM [6] of 86.5 ± 6.27% and a viability at 0.25 h, 5 µM ([9]; NK cells) of 94.9 ± 1.63%. For the same molecule, the viability at 0.5 h, 2 µM ([9]; NK cells) was 98.3 ± 1%, the viability at 1.5 h, 1 µM ([9]; NK cells) was 99.1 ± 0.08% and the viability at 0.5 h, 2 µM ([9]; human, DOHH2 cells) was 79.8 ± 6.18%. The viability at 0.5 h, 10 µM ([9]; human, DOHH2 cells) was 25 ± 2.66%, the viability at 1.5 h, 1 µM ([9]; human, DOHH2 cells) was 62.5 ± 6.17% and the viability at 0.5 h, 2 µM ([9]; human, Jurkat cells) was 97.4 ± 1.09%. For the same molecule, the viability at 0.5 h, 10 µM ([9]; human, Jurkat cells) was 96.6 ± 2.46%, the viability at 1.5 h, 1 µM ([9]; human, Jurkat cells) was 98.6 ± 0.39% and the viability at 0.5 h, 2 µM ([9]; human, KMS-12BM cells) was 95.1 ± 3.56%. For the same molecule, the viability at 0.5 h, 10 µM ([9]; human, KMS-12BM cells) was 92.7 ± 4.11%, the viability at 1.5 h, 1 µM ([9]; human, KMS-12BM cells) was 97.6 ± 1.05% and the viability at 0.5 h, 2 µM ([9]; human, REC-1 cells) was 99 ± 0.39%. For the same molecule, the viability at 0.5 h, 10 µM ([9]; human, REC-1 cells) was 25 ± 3.17%, the viability at 1.5 h, 1 µM ([9]; human, REC-1 cells) was 96.2 ± 2.53% and the viability at 0.5 h, 2 µM ([9]; mouse, HT2 cells) was 80.7 ± 7.1%. The viability at 0.5 h, 10 µM ([9]; mouse, HT2 cells) was 63.9 ± 5.35%, the viability at 1.5 h, 1 µM ([9]; mouse, HT2 cells) was 88.3 ± 7.91% and the “viability of transduced T cells (FSC/SSC, in words)” value [7] was “viability of the transduced T cells was not substantially affected”.

In the case of “RQIKIWFQNRRMKWKKC [Penetratin-Cys, reference compound]”, the “GFP intracellular delivery (fluorescence microscopy)” value [10] is reported as “not successfully delivered intracellularly” and the “Mean Factor” value [11] is reported as 1.1.

For “YARAAARQARAWEAKLAKALAKALAKHLAKALAKALKACEA [PTD4-KALA]”, the “Cell viability (%) (±St. Dev.; n = 3)” value [12] was 91.4 ± 3.67% and the viability [8] was 53.6 ± 3.91%.

For “YGRKKRRQRRRC [TAT-Cys, CPD single-domain peptide with C-terminal Cys, reference compound]”, the “GFP intracellular delivery (fluorescence microscopy)” value [10] was “not successfully delivered intracellularly” and the “Mean Factor” value [11] was 1.3.
